Data on 1 molecule can be found in article PMC10897929 (2024).

Assay [1] deals with CSS.3_cut3 (DNA, aptamer) GGACGACGCCAGAAGTTTACGAGGATATGGTAACATAGTCGT
In words: BLI, steady state fit. Particulars: Na+ 123 mM (NaCl), K+ 3.5 mM, Ca2+ 2.5 mM, Mg2+ 0.7 mM; sISF, 10 mM HEPES, 30 °C.

Assay [2] has as its system CSS.3_cut5 (DNA, aptamer) GGACGACGCCAGAAGTTTACGAGGATATGGTAACATAGTC
In words: BLI, steady state fit. To be noted: Na+ 123 mM (NaCl), K+ 3.5 mM, Ca2+ 2.5 mM, Mg2+ 0.7 mM; sISF, 10 mM HEPES, 30 °C.

Regarding `C[C@]12CCC(=O)C=C1CC[C@@H]1[C@@H]2[C@@H](O)C[C@@]2(C)[C@H]1CC[C@]2(O)C(=O)CO`, the KD – broadly, the free concentration of one partner at which half of the binding sites on the other are occupied at equilibrium, for simple one-to-one binding – was 990 nM in assay [1] and 4200 nM in assay [2].
